# Assays:
# [1] = tested on: isolated uterus under diestrous (without any spontaneous contractions); assay: B2: effect on isolated uterus of diestrous rat without spontaneous contractions (De Jalon solution with sodium diclofenac, non-cumulative curves); set-up: species or system Wistar rats; details: for Area (g of tension/2 min): B2, basal 1,96
# Procedure: (B1)- Concentration-response curves on isolated rat uterus under diestrous condition were carried out. Wistar rats weighing 250 g to 300 g were employed. The diestrous phase was detected by a daily vaginal smear. The uterus was dissected out and a portion of a horn was placed in a 10 ml organ bath in a similar way to that described in part A. The bath temperature was maintained at 37°C, bubbled with a mixture of 95 % O2 and 5 % CO2 in a Krebs nutrient solution. The organ was left to stabilize for one hour. The isolated uterus presented basal spontaneous contractions under these experimental conditions. Cumulative concentration-response curves were carried out with the addition of either 100 µl or 300 µl of solutions of either natural prostaglandins or B-407 in concentrations of 10^-10 M to 10^-6 M, each 15 minutes without any washing. Uterine contractions and quantitation were performed as described in (A). (B2)- Concentration-response curves in isolated uterus under diestrous (without any spontaneous contractions) were carried out. Sodium diclofenac was added to De Jalon nutrient solution to a final concentration of 4x10^-6 M. The organ was left to stabilize until the absence of spontaneous contractions. Non-cumulative concentration-response curves were obtained. Recordings of the contractions and their quantitation were performed as described in (A).
# The frequency and magnitude of the responses were globally evaluated by calculating the total area recorded at a fixed time period as will be further explained. The areas under the curve of the recording paper, over 15 minutes periods, were cut and weighed both in the concentration-response curves and in the potentiating experiments.
# The calibration was made by weighing a piece of paper which corresponded to a tension of 1 g at the working sensitivity along 2 minutes. Therefore, a relationship of area expressed in g/2 min was obtained and then the weights of the areas of the responses were transformed to unities of area. The results were expressed as the mean ± the standard error of the areas obtained. The statistical evaluation of the differences was carried out either by ANOVA or by Student's-t-test, as appropriate.
# [2] = Diarrheagenic effect in mice; set-up: species or system Swiss mice; details: mouse, in vivo
# Procedure: The diarrheagenic effect of the synthetic PGE1 analog B-407 was evaluated in Swiss mice. The effect of the intraperitoneal and intravaginal routes of administration were studied as follows:
# Six groups of ten mice (25 to 30 g) each (5 ♂ and 5 ♀) were used. They received i.p. doses of 0; 1; 3; 10; 30 and 100 µg/kg of the test drug. The diarrheagenic response was evaluated on an "all-or-none" basis as described in section C.
# A seven points dose-response curve was performed for B-407. Eight groups of six mice (18 to 25 g) each received doses of 0; 10; 18; 32; 56; 100; 160 and 250 µg/kg of B-407.
# The intravaginal administration was made through a polyethylene catheter attached to a 1 ml syringe. This system allows the delivery of volumes of 10 to 15 µl.
# The animals were evaluated in an "all-or-none" basis as the ratio of the number of animals with diarrhea over the total number of mice in the group. The median effective doses (ED50) with their fiducial limits and the statistics were performed according Litchfield and Wilcoxon [Eur. J. Pharmacol. 34, 105 (1975); J. Pharmacol. Exp. Ther., 96, 99 (1949)].
# [3] = tested on: rat uterus; assay: Disappearance of exogenous PGF2α in rat uterus slices (R.I.A.); set-up: species or system Wistar rats
# Procedure: An experiment was performed in which the disappearance of exogenous PGF2α was determined in the nutrient solution of slices of rat uterus both in the presence and absence of the synthetic PGE1 analog, B-407.
# Seven Wistar rats weighing approximately 220 g were estrogenized by the subcutaneous administration of 100 µg/kg of 17β estradiol. Twenty-four hours later they were killed by decapitation. The uterine horns were dissected out and weighed. The horns were cut and washed with bubbled De Jalon nutrient solution plus 4x10^-7 M sodium diclofenac during 15 to 20 minutes. Both bubbling and diclofenac content were maintained in the following steps: each horn was then placed in a small organ bath and preincubated during 15 to 20 min with either the nutrient solution alone or containing B-407 10^-8 M or 10^-7 M. The assay was started by adding exogenous PGF2α (10^-8 M in the medium) to each horn previously changed to a new tube. A final volume of 0.4 ml was obtained with the addition of De Jalon solution at 37°C. Aliquots of […] were sampled at 0 min, 5 min, 15 min and 30 min. The PGF2α concentration in each sample was determined by R.I.A. (Sigma, NEN) and it was expressed as pg/mg of wet tissue.
# [4] = tested on: rat uterus under diestrous condition; assay: C2: effect on PGF2α induced in vitro contraction of rat uterus under diestrous condition; details: B-407 1x10^-8 M; PGF2α 10^-9M; nutrient solution 1,04; p < 0.02
# Procedure: Then, a known concentration of the test prostaglandin was added and no washing was carried out during the following 15 minutes. PGF2α (10^-8 M) was added, washing once after 2 minutes and then twice over a total time period of 15 minutes. The result was expressed as the relationship between the effect of PGF2α after the treatment with B-407 and the sum of the effect of PGF2α (mean of the three initial additions) and the effect of B-407 "per se". The recordings of the contractions and their quantitation were performed as described in (A).
# The experimental conditions were identical to those described in B2 and the working protocol was similar to that of C1 but the PGF2α concentration was of 10^-9M. The recordings of the contractions and their quantitation were performed as described in (A).
# * p < 0.05: Tested vs. nutrient solution by ANOVA and Scheffe. ** p < 0.02: Tested vs. nutrient solution by Student's-t-test. Ratio = Effect of PGF2α after B-407/(Effect of PG F2α before B-407 + Effect of B-407). […]
# The frequency and magnitude of the responses were globally evaluated by calculating the total area recorded at a fixed time period as will be further explained. […]
# The calibration was made by weighing a piece of paper which corresponded to a tension of 1 g at the working sensitivity along 2 minutes. […] The results were expressed as the mean ± the standard error of the areas obtained. […]
structure (smiles),measurement,setting,value
"CCCCC(C)(O)C/C=C/[C@H]1[C@H](O)CC(=O)[C@@H]1CCCC/C=C/C(=O)OC (mixture of isomers) [B-407, trans-Δ^2-15-deoxy-16-hydroxy-16-methyl PGE1 methyl ester]",maximum response of the uterotonic effect relative to the basal one,"[1]; B2, with diclofenac",duplicates the basal one
same,Area (g of tension/2 min),[1]; 1x10^-6 M,"4,24 g of tension/2 min"
same,Area (g of tension/2 min),[1]; 1x10^-7 M,"3,73 g of tension/2 min"
same,Area (g of tension/2 min),[1]; 1x10^-8 M,"2,10 g of tension/2 min"
same,Area (g of tension/2 min),[1]; 1x10^-9 M,"1,91 g of tension/2 min"
same,ED50,"[2]; ip, confidence limits 1,95 to 8,65, n 10",0.00412 mg/kg
same,ED50,"[2]; i.vag., confidence limits 27,4 to 124,9, n 6",0.0583 mg/kg
same,PGF2α (pg/mg tissue),"[3]; B-407 10^-7 M, time 0 min, control 655,4","667,2 pg/mg tissue"
same,PGF2α (pg/mg tissue),"[3]; B-407 10^-7 M, time 5 min, control 582.8","623,7 pg/mg tissue"
same,PGF2α (pg/mg tissue),"[3]; B-407 10^-7 M, time 15 min, control 478.4","561,7 pg/mg tissue"
same,PGF2α (pg/mg tissue),"[3]; B-407 10^-7 M, time 30 min, control 227.5","528,4 pg/mg tissue"
same,PGF2α (pg/mg tissue),"[3]; B-407 10^-8 M, time 0 min, control 655,4","705,7 pg/mg tissue"
same,PGF2α (pg/mg tissue),"[3]; B-407 10^-8 M, time 5 min, control 582.8","705,9 pg/mg tissue"
same,PGF2α (pg/mg tissue),"[3]; B-407 10^-8 M, time 15 min, control 478.4","563,6 pg/mg tissue"
same,PGF2α (pg/mg tissue),"[3]; B-407 10^-8 M, time 30 min, control 227.5","403,7 pg/mg tissue"
same,Ratio = Effect of PGF2α after B-407/(Effect of PG F2α before B-407 + Effect of B-407),[4],"2,35"

# — patent publication EP0574185B1, “PGE1 analogs” (NEWPHARMA INTERNATIONAL CORPORATION, priority 1992, dated 1993)
